According to patent US4002740A, “Tridecapeptide compositions and methods” (priority 1975, dated 1977):
“Also recorded” adds a separate entry of the source. Ends that are not written are not given here.

Legend:
[1] = system: Thy-1+ T cell differentiation from prothymocytes (spleen cell populations from nu/nu mice); assay: induction in vitro of Thy-1+ T cell differentiation from prothymocytes (acquisition of Thy-1.2 as marker); type: cell-based; details: for induction of T cell differentiation (qualitative): induction assay in vitro, no concentration stated
Procedure: (§1) to determine the activity and characteristics of the polypeptide, determinations were carried out on healthy 5-6 week old nu/nu mice of both sexes, the mice being bred on a BALB/c background (thymocytes expressing Thy-1.2 surface antigen) and maintained under conventional conditions. For the antisera, anti Thy-1.2 sera were prepared in Thy-1 congenic mice.
(§2) For the induction of in vitro of Thy-1^+ T cell or CR^+ B cell differentiation, the induction of thymocyte differentiation from prothymocytes in vitro was performed as described by Komuro and Boyse, (Lancet 1, 740, 1973), using the acquisition of Thy-1.2 as a marker of T cell differentiation. The induction of CR^+ B cell differentiation from CR^- B cell precursors in vitro was performed under similar conditions using as the assay criterion, the capacity of CR^+ B cells to bind sheep erythrocytes coated with subagglutinating quantities of rabbit antibody and nonlytic complement. Spleen cell populations from healthy nu/nu mice fractionated on discontinuous bovine serium albumin gradients were used as the source of both precursor types (Thy-1 and […]) because they have few or no Thy-1^+ cells and low numbers of CR^+ cells.

[2] = system: CR+ B cell differentiation from CR- B cell precursors (spleen cell populations from nu/nu mice); assay: induction in vitro of CR+ B cell differentiation from CR- B cell precursors (binding of sheep erythrocytes coated with antibody and complement); type: cell-based
Procedure: as §1, §2

## GEQRKDVYVQLYL [tridecapeptide, H2 N--Gly--Glu--Gln--Arg--Lys--Asp--Val--Tyr--Val--Gln--Leu--Tyr--Leu--COOH]
[1]; in vitro
  concentration from which the polypeptide is maximally active: about 100 nanogram per ml
[1]; in vitro, lower end of active concentrations
  concentration from which the polypeptide is active: 1 nanogram per ml
[1]; listed as polypeptide
  induction of T cell differentiation (qualitative): inducing the differentiation of T-lymphocytes
[1]; listed as synthetic peptide
  induction of T cell differentiation (qualitative): induced the differentiation
[2]; in vitro, concentrations 0.01 ng to 10 μg/ml
  induction of differentiation of CR+ B cells: does not induce; also recorded: did not induce
[2]; induction assay in vitro, no concentration stated, listed as synthetic peptide
  induction of CR+ B cell differentiation (qualitative): did not induce
